Earlier results, collected in patent publication US20160144033A1, “CONCENTRATED ACETAMINOPHEN SOLUTION” (Emphascience, Inc., priority 2014, published 2016).

Conditions: room temperature

In the case of `CC(=O)Nc1ccc(O)cc1` [acetaminophen], the “solubility of acetaminophen in water” value is given as “ca. 13 mg per ml”.
